Test results: PubChem BioAssay AID2060625 (Molecular Pharmacology Branch, DTP, NCI, 2025)

Test system: 186277-243-T-J2-PDC spheroids with HUVEC/MSC, viability
Experiment: Anticancer human tumor 186277-243-T-J2-PDC patient-derived colon adenocarcinoma cell line growth inhibition [CLK]
Details: for IC50: curve of first compound; for viability, T/C: stronger effect = lower value
In short: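 Multi-cell-type spheroids combined patient-derived tumor cells with HUVEC endothelial cells and human mesenchymal stem cells. Paired agents were dosed in half-log steps down from about clinical Cmax, or from 10 microM where Cmax was unknown.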

[1] = second compound 0.0316 µM, first compound 0.0316 µM
[2] = second compound 0.0316 µM, first compound 0.1 µM
[3] = second compound 0.0316 µM, first compound 0.316 µM
[4] = second compound 0.0316 µM, first compound 1 µM
[5] = second compound 0.1 µM, first compound 0.0316 µM
[6] = second compound 0.1 µM, first compound 0.1 µM
[7] = second compound 0.1 µM, first compound 0.316 µM
[8] = second compound 0.1 µM, first compound 1 µM
[9] = second compound 0.316 µM, first compound 0.0316 µM
[10] = second compound 0.316 µM, first compound 0.1 µM
[11] = second compound 0.316 µM, first compound 0.316 µM
[12] = second compound 0.316 µM, first compound 1 µM
[13] = second compound 1 µM, first compound 0.0316 µM
[14] = second compound 1 µM, first compound 0.1 µM
[15] = second compound 1 µM, first compound 0.316 µM
[16] = second compound 1 µM, first compound 1 µM
[17] = second compound 3.16 µM, first compound 0.0316 µM
[18] = second compound 3.16 µM, first compound 0.1 µM
[19] = second compound 3.16 µM, first compound 0.316 µM
[20] = second compound 3.16 µM, first compound 1 µM
[21] = second compound 10 µM, first compound 0.0316 µM
[22] = second compound 10 µM, first compound 0.1 µM
[23] = second compound 10 µM, first compound 0.316 µM
[24] = second compound 10 µM, first compound 1 µM
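Note: compound exposure lasted seven days before readout.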
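Throughout, for viability, T/C: 100% = DMSO vehicle control wells.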

`C=CC(=O)Nc1cc(Nc2nccc(-c3cn(C)c4ccccc34)n2)c(OC)cc1N(C)CCN(C)C` + CNC(=O)c1ccc(Nc2nc(OC3CCCC3)c3c(-c4ccc5nc(C)oc5c4)c[nH]c3n2)c(OC)c1 was tested, and the IC50 (second compound 0.0316 µM) was greater than 300 nM, the IC50 (second compound 0.1 µM) was 203 nM and the IC50 (second compound 0.316 µM) was less than 0.949 nM. For the same compound, the IC50 (second compound 1 µM) was less than 0.949 nM, the IC50 (second compound 3.16 µM) was less than 0.949 nM and the IC50 (second compound 10 µM) was less than 0.949 nM. The viability, T/C (second compound 0.0316 µM, first compound 0.000949 µM) was 118%, the viability, T/C (second compound 0.0316 µM, first compound 0.003 µM) was 109% and the viability, T/C (second compound 0.0316 µM, first compound 0.00949 µM) was 101%. For the same compound, the viability, T/C (second compound 0.0316 µM, first compound 0.03 µM) was 93.7%, the viability, T/C (second compound 0.0316 µM, first compound 0.0949 µM) was 97.9% and the viability, T/C (second compound 0.0316 µM, first compound 0.3 µM) was 101%. The viability, T/C (second compound 0.1 µM, first compound 0.000949 µM) was 84.3%, the viability, T/C (second compound 0.1 µM, first compound 0.003 µM) was 76.1% and the viability, T/C (second compound 0.1 µM, first compound 0.00949 µM) was 73.1%. The viability, T/C (second compound 0.1 µM, first compound 0.03 µM) was 68%, the viability, T/C (second compound 0.1 µM, first compound 0.0949 µM) was 57.4% and the viability, T/C (second compound 0.1 µM, first compound 0.3 µM) was 46%. It also gave a viability, T/C (second compound 0.316 µM, first compound 0.000949 µM) of 48.7%, a viability, T/C (second compound 0.316 µM, first compound 0.003 µM) of 46.7% and a viability, T/C (second compound 0.316 µM, first compound 0.00949 µM) of 45%. It also gave a viability, T/C (second compound 0.316 µM, first compound 0.03 µM) of 43.4%, a viability, T/C (second compound 0.316 µM, first compound 0.0949 µM) of 39.4% and a viability, T/C (second compound 0.316 µM, first compound 0.3 µM) of 24.1%. It also gave a viability, T/C (second compound 1 µM, first compound 0.000949 µM) of 37.4%, a viability, T/C (second compound 1 µM, first compound 0.003 µM) of 36.5% and a viability, T/C (second compound 1 µM, first compound 0.00949 µM) of 32.7%. It also gave a viability, T/C (second compound 1 µM, first compound 0.03 µM) of 30.3%, a viability, T/C (second compound 1 µM, first compound 0.0949 µM) of 27% and a viability, T/C (second compound 1 µM, first compound 0.3 µM) of 18.1%. The viability, T/C (second compound 3.16 µM, first compound 0.000949 µM) was 36.3%, the viability, T/C (second compound 3.16 µM, first compound 0.003 µM) was 33.5% and the viability, T/C (second compound 3.16 µM, first compound 0.00949 µM) was 32.3%. For the same compound, the viability, T/C (second compound 3.16 µM, first compound 0.03 µM) was 28.6%, the viability, T/C (second compound 3.16 µM, first compound 0.0949 µM) was 24.8% and the viability, T/C (second compound 3.16 µM, first compound 0.3 µM) was 17.4%. The viability, T/C (second compound 10 µM, first compound 0.000949 µM) was 37.2%, the viability, T/C (second compound 10 µM, first compound 0.003 µM) was 35.6% and the viability, T/C (second compound 10 µM, first compound 0.00949 µM) was 33%. The viability, T/C (second compound 10 µM, first compound 0.03 µM) was 32.4%, the viability, T/C (second compound 10 µM, first compound 0.0949 µM) was 29.3% and the viability, T/C (second compound 10 µM, first compound 0.3 µM) was 21.1%.
`CCN1CCN(Cc2ccc(Nc3ncc(F)c(-c4cc(F)c5nc(C)n(C(C)C)c5c4)n3)nc2)CC1` + CNC(=O)c1ccc(Nc2nc(OC3CCCC3)c3c(-c4ccc5nc(C)oc5c4)c[nH]c3n2)c(OC)c1 was tested, and the IC50 (second compound 0.0316 µM) was greater than 1000 nM, the IC50 (second compound 0.1 µM) was greater than 1000 nM and the IC50 (second compound 0.316 µM) was greater than 1000 nM. For the same compound, the IC50 (second compound 1 µM) was less than 3.16 nM, the IC50 (second compound 3.16 µM) was less than 3.16 nM and the IC50 (second compound 10 µM) was less than 3.16 nM. It also gave a viability, T/C (second compound 0.0316 µM, first compound 0.00316 µM) of 123%, a viability, T/C (second compound 0.0316 µM, first compound 0.01 µM) of 101% and a viability, T/C [1] of 148%. It also gave a viability, T/C [2] of 116%, a viability, T/C [3] of 125% and a viability, T/C [4] of 117%. For the same compound, the viability, T/C (second compound 0.1 µM, first compound 0.00316 µM) was 92.7%, the viability, T/C (second compound 0.1 µM, first compound 0.01 µM) was 98.5% and the viability, T/C [5] was 104%. It also gave a viability, T/C [6] of 103%, a viability, T/C [7] of 114% and a viability, T/C [8] of 104%. It also gave a viability, T/C (second compound 0.316 µM, first compound 0.00316 µM) of 59%, a viability, T/C (second compound 0.316 µM, first compound 0.01 µM) of 64.3% and a viability, T/C [9] of 71.6%. It also gave a viability, T/C [10] of 78.8%, a viability, T/C [11] of 76.5% and a viability, T/C [12] of 74.8%. It also gave a viability, T/C (second compound 1 µM, first compound 0.00316 µM) of 41.8%, a viability, T/C (second compound 1 µM, first compound 0.01 µM) of 47.8% and a viability, T/C [13] of 48.3%. The viability, T/C [14] was 60.5%, the viability, T/C [15] was 58.1% and the viability, T/C [16] was 61.5%. The viability, T/C (second compound 3.16 µM, first compound 0.00316 µM) was 39.1%, the viability, T/C (second compound 3.16 µM, first compound 0.01 µM) was 39.2% and the viability, T/C [17] was 45.2%. The viability, T/C [18] was 47%, the viability, T/C [19] was 51.9% and the viability, T/C [20] was 59.6%. The viability, T/C (second compound 10 µM, first compound 0.00316 µM) was 41%, the viability, T/C (second compound 10 µM, first compound 0.01 µM) was 39.9% and the viability, T/C [21] was 46.5%. It also gave a viability, T/C [22] of 43.4%, a viability, T/C [23] of 47.8% and a viability, T/C [24] of 46.9%.
In the case of `Nc1ccccc1NC(=O)c1ccc(CNC(=O)OCc2cccnc2)cc1` + CNC(=O)c1ccc(Nc2nc(OC3CCCC3)c3c(-c4ccc5nc(C)oc5c4)c[nH]c3n2)c(OC)c1, the IC50 (second compound 0.0316 µM) is reported as 3050 nM, the IC50 (second compound 0.1 µM) is reported as 2560 nM and the IC50 (second compound 0.316 µM) is reported as 1510 nM. It also gave an IC50 (second compound 1 µM) of 31.6 nM, an IC50 (second compound 3.16 µM) of less than 31.6 nM and an IC50 (second compound 10 µM) of less than 31.6 nM. It also gave a viability, T/C [1] of 106%, a viability, T/C [2] of 107% and a viability, T/C [3] of 93.3%. It also gave a viability, T/C [4] of 92.9%, a viability, T/C (second compound 0.0316 µM, first compound 3.16 µM) of 48% and a viability, T/C (second compound 0.0316 µM, first compound 10 µM) of 11%. The viability, T/C [5] was 91.9%, the viability, T/C [6] was 96.8% and the viability, T/C [7] was 88%. The viability, T/C [8] was 104%, the viability, T/C (second compound 0.1 µM, first compound 3.16 µM) was 39.8% and the viability, T/C (second compound 0.1 µM, first compound 10 µM) was 4.98%. For the same compound, the viability, T/C [9] was 53.6%, the viability, T/C [10] was 60.2% and the viability, T/C [11] was 64.2%. The viability, T/C [12] was 82.2%, the viability, T/C (second compound 0.316 µM, first compound 3.16 µM) was 23% and the viability, T/C (second compound 0.316 µM, first compound 10 µM) was 3.58%. For the same compound, the viability, T/C [13] was 37.9%, the viability, T/C [14] was 38.8% and the viability, T/C [15] was 47.7%. The viability, T/C [16] was 54.1%, the viability, T/C (second compound 1 µM, first compound 3.16 µM) was 16.4% and the viability, T/C (second compound 1 µM, first compound 10 µM) was 1.52%. It also gave a viability, T/C [17] of 33.7%, a viability, T/C [18] of 38.2% and a viability, T/C [19] of 39%. For the same compound, the viability, T/C [20] was 41.2%, the viability, T/C (second compound 3.16 µM, first compound 3.16 µM) was 9.98% and the viability, T/C (second compound 3.16 µM, first compound 10 µM) was 1.71%. For the same compound, the viability, T/C [21] was 38.3%, the viability, T/C [22] was 32.1% and the viability, T/C [23] was 35.7%. It also gave a viability, T/C [24] of 35.3%, a viability, T/C (second compound 10 µM, first compound 3.16 µM) of 10.1% and a viability, T/C (second compound 10 µM, first compound 10 µM) of 0.98%.
